Measurements published in US7358402B2, “Reduced coenzyme Q10 crystal with excellent stability and composition containing said reduced coenzyme Q10 crystal” (Kaneka Corporation, priority 2003, dated 2008).

Assay: Plasma concentration of reduced coenzyme Q10 after oral administration to rats
Format: in vivo
Conditions: SD rats, male, oral 30 mg/kg as suspension with rapeseed oil (1:2) in 0.2% Tween 80
Protocol: Using the reduced coenzyme Q10 obtained in Example 1 and the reduced coenzyme Q10 obtained in Comparative Example 1, the blood concentrations of reduced coenzyme Q10 were measured when they were orally administered to rats. Each samples and rapeseed oil were added to aqueous solution of 0.2% Tween 80 to prepare suspension in which reduced coenzyme Q10:rapeseed oil=1:2. The suspension was orally administered to SD rats (male, 6 rats in one group) forcibly using a stomach sonde in 30 mg (reduced coenzyme Q10)/kg (rat body weight). Thereafter, the blood was sampled with time, and the plasma concentration of reduced coenzyme Q10 was measured by HPLC.

SMILES | Tmax, time to maximum plasma concentration (listed as Reduced coenzyme Q10 crystals obtained in Comparative Example 1, 30 mg/kg) | Tmax, time to maximum plasma concentration (listed as Reduced coenzyme Q10 crystals obtained in Example 1, 30 mg/kg)
COc1c(O)c(C)c(C/C=C(\C)CC/C=C(\C)CC/C=C(\C)CC/C=C(\C)CC/C=C(\C)CC/C=C(\C)CC/C=C(\C)CC/C=C(\C)CC/C=C(\C)CCC=C(C)C)c(O)c1OC [Crystals obtained in Comparative Example 1] [reduced coenzyme Q10] | 8 h | –
COc1c(O)c(C)c(C/C=C(\C)CC/C=C(\C)CC/C=C(\C)CC/C=C(\C)CC/C=C(\C)CC/C=C(\C)CC/C=C(\C)CC/C=C(\C)CC/C=C(\C)CCC=C(C)C)c(O)c1OC [Crystals obtained in Example 1, reduced coenzyme Q10] | – | 4 h
